Results taken from US20170029813A1, “METHODS AND SYSTEMS FOR DROPLET TAGGING AND AMPLIFICATION” (President and Fellows of Harvard College, priority 2014, published 2017).

How the values were obtained:
[1] = system: K562 chronic myeloid leukemia cells; assay: Apoptosis detection with fluorogenic caspase substrate Caspalux6-J1D2 in bulk and in drops; type: cell-based; conditions: K562 cells treated with Imatinib for 24 hours; both bulk and drop experiment (FIG. 7)
Method: Single K562 chronic myeloid leukemia cells were introduced to the drug combinations by picoinjecting a cell suspension to the merged drops at a concentration known to obtain a Poisson distribution with rate λ (lambda)=0.1, and incubated at 37° C. for 24 hours.
By adding a fluorogenic substrate, caspalux6-J1D2, which is specifically cleaved by increased caspase 3 and caspase 3-like activities during apoptosis, apoptosis of cells in drops can be determined.

Leukemia K562 cells = assay: Apoptosis and necrosis by Annexin V / propidium iodide staining of cells in agarose gel particles; type: cell-based; conditions: 48 hr incubation, drops containing 20 micrograms/mL Imatinib mixed at a 1:1 ratio (10 micrograms/mL per FIG. 12), PI and Annexin V staining
Method: In this example, first cells are mixed with molten low melt agarose at 37° C. and together incorporated into droplets. […] An UltraPure low melting point agarose is used in this experiment, which melts at 65.5° C., remains fluid at 37° C. and becomes solid rapidly at temperatures below 25° C. […] In this example, agarose powder was dissolved into PBS and autoclaved to prepare a sterilized 2% (w/v) agarose solution. Cells were counted and suspend in a DMEM culture media with 40% fetal bovine serum, and the cell suspension was mixed with agarose solution at 1:1 volume ratio. The mixture of cells and agarose gel was flowed into the sample inlet of a microfluidic drop-making device, and HFE7500 oil with 2% surfactant was flowed into the oil inlet to cause the cell-containing agarose gel to produce 80 micrometer drops. The generated gel-in-oil drops were collected into a pre-cooled eppendorf tube in an ice bath.
The drops containing agarose gel particles were collected into a pre-cooled eppendorf tube, after which the injected cell-containing agarose gel remained spherical. In the following steps, the agarose gel particles were injected into the drop containing drug combination and drug barcodes, followed by incubation, destabilization, staining, washing and FACS to obtain the gel particles containing positive cells. […]

## Cc1ccc(NC(=O)c2ccc(CN3CCN(C)CC3)cc2)cc1Nc1nccc(-c2cccnc2)n1 [Imatinib]
[1]
  apoptotic signal (Caspalux6-J1D2 fluorescence): clear apoptotic signal
Leukemia K562 cells
  apoptotic and necrotic cells: About 70%
